From patent US20070066616A1, “Inhibitors for extracellular signal-regulated kinase docking domains and uses therefor” (priority 2005, published 2007)

Columns and labels:
ERK2 D316N = biological target: T1, ERK2 D316N (Mus musculus, UniProt P63085, D316N); assay: Fluorescence titration with ERK2 point mutant D316N (CD domain); assay type: binding; conditions: fluorescence quenching
T1 construct: (His)x6; made in house; host or cells: bacteria (as described for ERK2 in general; not repeated for the mutant)
Description: (§1) Direct binding interactions between ERK2 and the biologically active compounds is determined using fluorescence spectroscopy (47). Experiments measure the changes in the intrinsic ERK2 fluorescence due to the presence of aromatic amino acids, with the indole group of tryptophan being the major fluorophore with absorption and emission maxima around 280 and 340 nanometers (nm), respectively. Fluorescence spectra were recorded with a Luminescence Spectrometer LS50 (Perkin Elmer, Boston, Mass.). For all experiments, ERK2 protein was diluted into 20 mM Tris-HCl, pH 7.5. Titrations were performed by increasing the test compound concentration while maintaining the ERK2 protein concentration at 3 μM.
(§2) Unphosphorylated and phosphorylated ERK2 typically are incubated with […] of the biologically active compounds and the fluorescence intensity is measured. If necessary, higher inhibitor concentrations are used to saturate fluorescence quenching. The excitation wavelength was 295 nm and fluorescence was monitored from 300 to 500 nm. All reported fluorescence intensities are relative values and are not corrected for wavelength variations in detector response. […] Because the test compounds contain aromatic structures, the emission spectra of the active compounds in the absence of ERK2 is be determined. […]

ERK2 T157A = biological target: T2, ERK2 T157A (Mus musculus, UniProt P63085, T157A); assay: Fluorescence titration with ERK2 point mutant T157A (ED domain); assay type: binding; conditions: fluorescence quenching
T2 construct: (His)x6; made in house; host or cells: bacteria (as described for ERK2 in general; not repeated for the mutant)
Description: as §1, §2

[1] = system: ERK1/2 phosphorylation by MEK1/2; assay: ERK1/2 phosphorylation on activating sites (upstream MEK1/2), immunoblot; assay type: cell-based, human; conditions: HeLa cells, EGF stimulated
Description: HeLa cells were pretreated with or without 100 μM of test compounds for 5 min (FIGS. 5A-5B) or 15 min (FIGS. 5C-5E) prior to the addition of epidermal growth factor (EGF or E) to stimulate the ERK pathway or anisomycin (A) to stimulate p38 MAP kinase. In FIGS. 5A-5B HeLa cells were treated with EGF for 5 minutes. […] The far left lane is the control (−) with no EGF. […] The control (C) is EGF only treatment. In FIG. 5B cells pretreated with increasing concentrations of compound 76 were stimulated with EGF. ELK-1 phosphorylation on Ser383 (pELK-1) was measured by immunoblotting. The expression of dually phosphorylated ERK1/2 (ppERK1/2) and a-tubulin as a loading control are also shown. […] The pElk-1 phosphorylation in the presence of the test compounds was compared to the EGF only treatment, which was set at 100%. […] The pRsk-1 phosphorylation in the presence of the test compounds was compared to the EGF only treatment, which was set at 100%. […] The pATF2 phosphorylation in the presence of the test compounds was compared to the anisomycin (A) only treatment, which was set at 100%. The data were reproduced in at least 3 independent experiments.
Prior to harvesting, cells were pre-incubated with the test compounds for 15-20 minutes and then stimulated with EGF or anisomycin to activate the ERK or p38 MAP kinase pathways, respectively. […]

T1 sequence (P63085 whole entry D316N, the tested form may be a part): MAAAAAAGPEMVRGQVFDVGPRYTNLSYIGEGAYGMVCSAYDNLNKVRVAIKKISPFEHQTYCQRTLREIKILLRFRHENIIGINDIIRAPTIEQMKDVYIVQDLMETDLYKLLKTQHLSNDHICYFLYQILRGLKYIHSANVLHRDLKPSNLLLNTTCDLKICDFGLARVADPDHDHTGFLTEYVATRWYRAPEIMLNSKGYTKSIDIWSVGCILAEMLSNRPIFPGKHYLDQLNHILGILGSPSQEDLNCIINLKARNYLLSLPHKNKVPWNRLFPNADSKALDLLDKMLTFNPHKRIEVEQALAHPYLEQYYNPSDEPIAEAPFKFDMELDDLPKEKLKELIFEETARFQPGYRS
T2 sequence (P63085 whole entry T157A, the tested form may be a part): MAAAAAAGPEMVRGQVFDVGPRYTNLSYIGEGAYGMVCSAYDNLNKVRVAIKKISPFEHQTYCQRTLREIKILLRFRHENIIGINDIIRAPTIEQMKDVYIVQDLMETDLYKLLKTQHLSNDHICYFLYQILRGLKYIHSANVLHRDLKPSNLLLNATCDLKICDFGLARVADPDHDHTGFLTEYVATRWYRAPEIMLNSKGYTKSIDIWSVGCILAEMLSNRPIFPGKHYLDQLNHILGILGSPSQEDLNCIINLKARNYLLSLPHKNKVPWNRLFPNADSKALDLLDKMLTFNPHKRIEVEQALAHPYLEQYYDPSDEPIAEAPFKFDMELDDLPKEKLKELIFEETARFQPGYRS

reduction in binding affinity compared to wild type ERK2 (ERK2 D316N): approximately 5 fold
reduction in binding affinity compared to wild type ERK2 (ERK2 T157A): approximately 5 fold
SMILES: CCOc1ccc(C=C2SC(=O)N(CCN)C2=O)cc1 [Compound 76]
effect on ERK1/2 phosphorylation on activating sites [1]: largely unaffected
